The values that follow come from patent publication US20230087118A1, “IMIDAZO[1,2-a][sequence] DERIVATIVES AND THEIR USE IN THE TREATMENT OF DISEASE” (priority 2019, published 2023).

The target in one test is T1, IRAK4 (Homo sapiens, UniProt Q9NWZ3).
T1 sequence (Q9NWZ3 1-460): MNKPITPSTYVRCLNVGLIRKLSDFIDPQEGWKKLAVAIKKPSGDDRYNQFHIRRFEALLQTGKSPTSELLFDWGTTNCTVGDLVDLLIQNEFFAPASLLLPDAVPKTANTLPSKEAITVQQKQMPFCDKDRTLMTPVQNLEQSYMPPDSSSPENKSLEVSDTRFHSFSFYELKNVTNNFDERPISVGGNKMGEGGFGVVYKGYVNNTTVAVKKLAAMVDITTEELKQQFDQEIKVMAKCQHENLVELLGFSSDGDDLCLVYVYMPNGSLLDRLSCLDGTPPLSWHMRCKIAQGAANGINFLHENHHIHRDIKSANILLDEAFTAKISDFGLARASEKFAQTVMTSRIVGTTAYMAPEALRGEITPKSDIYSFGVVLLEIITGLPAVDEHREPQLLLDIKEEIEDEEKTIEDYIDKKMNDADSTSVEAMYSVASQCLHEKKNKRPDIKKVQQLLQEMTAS
Kind of test: biochemical.
Details: not given
What is called IC50 is the concentration at which inhibition is half-maximal. The compound `CCOc1nc(C(=O)Nc2cnn3cc(C)cnc23)cn2cc(C34COC(C)(C3)C4)nc12` [Example 498, 8-Ethoxy-2-(1-methyl-2-oxabicyclo[2.1.1]hexan-4-yl)-N-(6-methylpyrazolo[1,5-a]pyrimidin-3-yl)imidazo[1,2-a]pyrazine-6-carboxamide] returned an IC50 of 0.0043 µM. This counts as single-digit nanomolar.
Still for that read-out and setting: under `CCOc1nc(C(=O)Nc2cccnc2OC(C)C)cn2cc(C34COC(C)(C3)C4)nc12` [Example 499, 8-Ethoxy-N-(2-isopropoxypyridin-3-yl)-2-(1-methyl-2-oxabicyclo[2.1.1]hexan-4-yl)imidazo[1,2-a]pyrazine-6-carboxamide] stands 0.0017 µM.
Same read-out and setting: in the case of `CCOc1nc(C(=O)Nc2cccn(C)c2=O)cn2cc(C34COC(C)(C3)C4)nc12` [Example 500, 8-Ethoxy-N-(1-methyl-2-oxo-1,2-dihydropyridin-3-yl)-2-(1-methyl-2-oxabicyclo[2.1.1]hexan-4-yl)imidazo[1,2-a]pyrazine-6-carboxamide] it was 0.0021 µM; in that of `CCOc1nc(C(=O)Nc2ccn(CC)n2)cn2cc(C34COC(C)(C3)C4)nc12` [Example 501, 8-Ethoxy-N-(1-ethyl-1H-pyrazol-3-yl)-2-(1-methyl-2-oxabicyclo[2.1.1]hexan-4-yl)imidazo[1,2-a]pyrazine-6-carboxamide], 0.0069 µM; in that of `CC(C)Oc1cc2nc(C34CCC(C)(C3)OC4)cn2cc1C(=O)Nc1cccc(C(F)(F)F)c1F` (stereo not shown) [Example 502, N-(2-fluoro-3-(trifluoromethyl)phenyl)-7-isopropoxy-2-(1-methyl-2-oxabicyclo[2.2.1]heptan-4-yl)imidazo[1,2-a]pyridine-6-carboxamide], 0.0004 µM.
On to `CC(C)Oc1cc2nc(C34CCC(C)(C3)OC4)cn2cc1C(=O)Nc1nc(C(F)(F)F)cs1` (stereo not shown) [Example 503, 7-Isopropoxy-2-(1-methyl-2-oxabicyclo[2.2.1]heptan-4-yl)-N-(4-(trifluoromethyl)thiazol-2-yl)imidazo[1,2-a]pyridine-6-carboxamide], for which inhibition was half-maximal at 0.0055 µM (IC50).
On the same count and under the same terms, in the case of `CC(C)Oc1cc2nc(C34CCC(C)(C3)OC4)cn2cc1C(=O)Nc1cccn(C)c1=O` (stereo not shown) [Example 505, 7-Isopropoxy-N-(1-methyl-2-oxo-1,2-dihydropyridin-3-yl)-2-(1-methyl-2-oxabicyclo[2.2.1]heptan-4-yl)imidazo[1,2-a]pyridine-6-carboxamide] it was 0.0005 µM; in that of `CC(C)Oc1cc2nc(C34CCC(C)(C3)OC4)cn2cc1C(=O)Nc1ccn(C(F)(F)F)n1` (stereo not shown) [Example 506, 7-Isopropoxy-2-(1-methyl-2-oxabicyclo[2.2.1]heptan-4-yl)-N-(1-(trifluoromethyl)-1H-pyrazol-3-yl)imidazo[1,2-a]pyridine-6-carboxamide], 0.0038 µM.
The same measure, in the same setting: under `Cc1nocc1NC(=O)c1cn2cc(C34CCC(C)(C3)OC4)nc2cc1OC(C)C` (stereo not shown) [Example 507, 7-Isopropoxy-2-(1-methyl-2-oxabicyclo[2.2.1]heptan-4-yl)-N-(3-methylisoxazol-4-yl)imidazo[1,2-a]pyridine-6-carboxamide] stands 0.0095 µM; under `CCn1ccc(NC(=O)c2cn3cc(C45CCC(C)(C4)OC5)nc3cc2OC(C)C)n1` (stereo not shown) [Example 508, N-(1-ethyl-1H-pyrazol-3-yl)-7-isopropoxy-2-(1-methyl-2-oxabicyclo[2.2.1]heptan-4-yl)imidazo[1,2-a]pyridine-6-carboxamide], 0.0023 µM; under `CC(C)Oc1cc2nc(C34CCC(C)(C3)OC4)cn2cc1C(=O)Nc1cccc(C#N)n1` (stereo not shown) [Example 509, N-(6-cyanopyridin-2-yl)-7-isopropoxy-2-(1-methyl-2-oxabicyclo[2.2.1]heptan-4-yl)imidazo[1,2-a]pyridine-6-carboxamide], 0.0003 µM.
On the same count and under the same terms, under `CC(C)Oc1cc2nc(C34CCC(C)(C3)OC4)cn2cc1C(=O)Nc1cccc(C(F)(F)F)c1` (stereo not shown) [Example 510, 7-Isopropoxy-2-(1-methyl-2-oxabicyclo[2.2.1]heptan-4-yl)-N-(3-(trifluoromethyl)phenyl)imidazo[1,2-a]pyridine-6-carboxamide] stands 0.001 µM; under `CCc1ncsc1NC(=O)c1cn2cc(C34CCC(C)(C3)OC4)nc2cc1OC(C)C` (stereo not shown) [Example 511, N-(4-ethylthiazol-5-yl)-7-isopropoxy-2-(1-methyl-2-oxabicyclo[2.2.1]heptan-4-yl)imidazo[1,2-a]pyridine-6-carboxamide], 0.0042 µM.
Take `CC(C)Oc1cc2nc(C34CCC(C)(C3)OC4)cn2cc1C(=O)Nc1nccs1` (stereo not shown) [Example 512, 7-Isopropoxy-2-(1-methyl-2-oxabicyclo[2.2.1]heptan-4-yl)-N-(thiazol-2-yl)imidazo[1,2-a]pyridine-6-carboxamide]: the IC50 came out at 0.009 µM. This IC50 is about 2.1-fold higher than that of the compound before.
Still for that read-out and setting: in the case of `COc1nscc1NC(=O)c1cn2cc(C34CCC(C)(C3)OC4)nc2cc1OC(C)C` (stereo not shown) [Example 513, 7-Isopropoxy-N-(3-methoxyisothiazol-4-yl)-2-(1-methyl-2-oxabicyclo[2.2.1]heptan-4-yl)imidazo[1,2-a]pyridine-6-carboxamide] it was 0.0003 µM; in that of `CC(C)Oc1cc2nc(C34CCC(C)(C3)OC4)cn2cc1C(=O)Nc1cccc(C(F)F)c1` (stereo not shown) [Example 514, N-(3-(difluoromethyl)phenyl)-7-isopropoxy-2-(1-methyl-2-oxabicyclo[2.2.1]heptan-4-yl)imidazo[1,2-a]pyridine-6-carboxamide], 0.0005 µM.
The compound `CC(C)Oc1cc2nc(C34CCC(C)(C3)OC4)cn2cc1C(=O)Nc1cccc(F)c1F` (stereo not shown) [Example 515, N-(2,3-difluorophenyl)-7-isopropoxy-2-(1-methyl-2-oxabicyclo[2.2.1]heptan-4-yl)imidazo[1,2-a]pyridine-6-carboxamide] showed an IC50 of 0.0014 µM.
The same measure, in the same setting: in the case of `CC(C)Oc1cc2nc(C34CCC(C)(C3)OC4)cn2cc1C(=O)Nc1nc(C(F)F)cs1` (stereo not shown) [Example 516, N-(4-(difluoromethyl)thiazol-2-yl)-7-isopropoxy-2-(1-methyl-2-oxabicyclo[2.2.1]heptan-4-yl)imidazo[1,2-a]pyridine-6-carboxamide] it was 0.0015 µM.
On the same count and under the same terms, in the case of `CC(C)Oc1cc2nc(C34CCC(C)(C3)OC4)cn2cc1C(=O)Nc1ccc(F)cn1` (stereo not shown) [Example 517, N-(5-fluoropyridin-2-yl)-7-isopropoxy-2-(1-methyl-2-oxabicyclo[2.2.1]heptan-4-yl)imidazo[1,2-a]pyridine-6-carboxamide] it was 0.0043 µM.
Still for that read-out and setting: in the case of `CC(C)Oc1cc2nc(C34CCC(C)(C3)OC4)cn2cc1C(=O)Nc1ccccn1` (stereo not shown) [Example 518, 7-Isopropoxy-2-(1-methyl-2-oxabicyclo[2.2.1]heptan-4-yl)-N-(pyridin-2-yl)imidazo[1,2-a]pyridine-6-carboxamide] it was 0.004 µM; in that of `CC(C)Oc1cc2nc(C3CC3)cn2cc1C(=O)Nc1cccc(CC#N)n1` [Example 519, N-(6-(cyanomethyl)pyridin-2-yl)-2-cyclopropyl-7-isopropoxy-imidazo[1,2-a]pyridine-6-carboxamide], 0.003 µM.
Take `Cn1cc(-c2cccc(NC(=O)c3cn4cc(C56COC(C)(C5)C6)nc4cc3OC3CCC3)n2)cn1` [Example 520, 7-Cyclobutoxy-N-(6-(1-methyl-1H-pyrazol-4-yl)pyridin-2-yl)-2-(1-methyl-2-oxabicyclo[2.1.1]hexan-4-yl)imidazo[1,2-a]pyridine-6-carboxamide]: inhibition was half-maximal at 0.0001 µM (IC50).
With `CC12CC(c3cn4cc(C(=O)Nc5ccn(C(F)(F)F)n5)c(OC5CCC5)cc4n3)(CO1)C2` [Example 521, 7-Cyclobutoxy-2-(1-methyl-2-oxabicyclo[2.1.1]hexan-4-yl)-N-(1-(trifluoromethyl)-1H-pyrazol-3-yl)imidazo[1,2-a]pyridine-6-carboxamide], half-maximal inhibition (IC50) was put at 0.0118 µM.
Still for that read-out and setting: under `Cc1cc(-n2ccc(NC(=O)c3cn4cc(C56COC(C)(C5)C6)nc4cc3OC3CCC3)n2)ccn1` [Example 522, 7-Cyclobutoxy-2-(1-methyl-2-oxabicyclo[2.1.1]hexan-4-yl)-N-(1-(2-methylpyridin-4-yl)-1H-pyrazol-3-yl)imidazo[1,2-a]pyridine-6-carboxamide] stands 0.0005 µM; under `CC12CC(c3cn4cc(C(=O)Nc5ccn(C(F)F)n5)c(OC5CCC5)cc4n3)(CO1)C2` [Example 523, 7-Cyclobutoxy-N-(1-(difluoromethyl)-1H-pyrazol-3-yl)-2-(1-methyl-2-oxabicyclo[2.1.1]hexan-4-yl)imidazo[1,2-a]pyridine-6-carboxamide], 0.0023 µM; under `CC12CC(c3cn4cc(C(=O)Nc5ccn(C6CCC6)n5)c(OC5CCC5)cc4n3)(CO1)C2` [Example 524, 7-Cyclobutoxy-N-(1-cyclobutyl-1H-pyrazol-3-yl)-2-(1-methyl-2-oxabicyclo[2.1.1]hexan-4-yl)imidazo[1,2-a]pyridine-6-carboxamide], 0.0111 µM.
On the same count and under the same terms, in the case of `CC12CC(c3cn4cc(C(=O)Nc5ccn(CC6CC6)n5)c(OC5CCC5)cc4n3)(CO1)C2` [Example 525, 7-Cyclobutoxy-N-(1-(cyclopropylmethyl)-1H-pyrazol-3-yl)-2-(1-methyl-2-oxabicyclo[2.1.1]hexan-4-yl)imidazo[1,2-a]pyridine-6-carboxamide] it was 0.0185 µM.

Staying with this test, now noted: IRAK4 Biochemical Assay (1 mM ATP, 2 h) IC50 (μM), 1 mM ATP, 2 h, 100 pM IRAK4.
On to `CC(C)Oc1cc2nc(C34CCC(C)(C3)OC4)cn2cc1C(=O)Nc1ccn(C(F)F)n1` (stereo not shown) [Example 504, N-(1-(difluoromethyl)-1H-pyrazol-3-yl)-7-isopropoxy-2-(1-methyl-2-oxabicyclo[2.2.1]heptan-4-yl)imidazo[1,2-a]pyridine-6-carboxamide], for which the IC50 was 0.0018 µM.
